Measurements reported in PMC3184957, “Improving a Natural CaMKII Inhibitor by Random and Rational Design” (PLoS ONE, 2011).
“Also recorded” adds a separate entry of the source. Like-named read-outs stand apart in the source and are kept apart here. Ends that are not written are not given here.

Tests used:
[1] = target: T1, CaMKIIα (Rattus norvegicus, UniProt P11275); experiment: CaMKII activity assay, phosphorylation of syntide 2; assay type: biochemical; conditions: for CaMKII activity remaining at 5 nM peptide: 5 nM peptide (Figs. S6, 7B); for effect of rational mutation in CN19a2v / CN19o on CaMKII inhibition (Fig. 6): compared with CN19a2v or CN19o, Fig. 6C CaMKII 0.5 nM; for fold greater potency of CaMKII inhibition compared to CN19: ratio of IC50 values; for effect of individual mutation of CN19 on potency of CaMKII inhibition: compared with CN19, some substitutions tested in CN19a2 or a3; for fold reduction of potency of CaMKII inhibition compared to CN19 (Ala scan): Ala substitution in CN19, Fig. 2
T1 construct: made in house; host or cells: baculovirus/Sf9 (CaMKII); bacteria (CaM)
From the text: CaM and CaMKII was purified after bacterial or baculovirus/Sf9 cell expression as described, [47]. Other kinases were purchased (PKA and PKC from PhosphoSolutions; others from SignalChem). […] All CN peptides were N-terminally acetylated and C-terminally amidated, except for the peptides used for the initial Ala scan. Substrate peptides were purchase from Genescript or as indicated. Chemicals were obtained from Sigma and Perkin Elmer. […] For all kinase activity assays, reactions were stopped by spotting onto P81 cation exchange chromatography paper (Whatman) squares. After extensive washes in water, phosphorylation of the substrate peptide bound to the P81 paper was measured by the Cherenkov method.

[2] = target: T2, PKA (Bos taurus, UniProt P00517); experiment: PKA activity assay; assay type: biochemical, bovine; conditions: 5 µM peptide; 5 nM PKA catalytic subunits, 10 min, Kemptide
T2 construct: PKA and PKC were purified from bovine heart or rat brain, respectively; purchased PhosphoSolutions; host or cells: bovine heart
Procedure: (§1) For all kinase activity assays, reactions were stopped by spotting onto P81 cation exchange chromatography paper (Whatman) squares. After extensive washes in water, phosphorylation of the substrate peptide bound to the P81 paper was measured by the Cherenkov method.
(§2) Reactions were performed essentially as described for CaMKII. However, for AMPK, 100 µM AMP was added to the reaction. For AMPK, PKC, and PKA, the reaction mix contained 1 mM EGTA instead of CaCl2 and CaM. Prior to activity assays, CaMKI (12.5 nM) and CaMKIV (80 nM) were phosphorylated by CaMKKα (1.25–4 nM) for 5 min at 30°C in Ca^2+/CaM containing buffer. Additionally, kinase amount, reaction time, and the substrate (obtained from different companies as indicated) was varied as follows: 2.5 nM CaMKIα, 3 min, syntide 2 (Genescript); 5 nM CaMKIV, 10 min, CaMK2g 345–358 peptide (Anaspec); 2.5 nM DAPK1 1–363, 3 min, MLC-derived peptide (Anaspec); 5 nM AMPK-α2β1γ1, 10 min, SAMStide (SignalChem); 5 nM PKA, 10 min, Kemptide (Genescript); 2 nM PKC, 10 min, MARCKS peptide (Anaspec). PKA and PKC were purified from bovine heart or rat brain, respectively. […] Other kinases were recombinant protein from mouse (CaMKI) or human (CaMKK, CaMKIV, DAPK1, AMPK), of the isoform and/or subunit composition indicated above.

[3] = target: T3, CaMKIα (Mus musculus, UniProt Q91YS8); experiment: CaMKI activity assay; assay type: biochemical; conditions: for IC50: 2.5 nM CaMKIα, 3 min, syntide 2, curve fit with Hill coefficient set as 1 (Fig. S5), read-out: IC50 of CaMKI inhibition; for effect on CaMKI activity at 5 µM peptide: 5 µM peptide (Figs. 5, 7B)
T3 construct: purchased SignalChem
Procedure: as §1, §2

[4] = target: T4, CaMKIV (Homo sapiens, UniProt Q16566); experiment: CaMKIV activity assay; assay type: biochemical; conditions: 5 µM peptide; 5 nM CaMKIV, 10 min, CaMK2g 345–358 peptide
T4 construct: purchased SignalChem
Procedure: as §1, §2

[5] = system: PKC; experiment: PKC activity assay; assay type: biochemical, rat; conditions: 5 µM peptide; 2 nM PKC (PKM fragment), 10 min, MARCKS peptide
Procedure: as §1, §2

[6] = target: T5, DAPK1 1–363 (Homo sapiens, UniProt P53355); experiment: DAPK1 activity assay; assay type: biochemical; conditions: 5 µM peptide; 2.5 nM DAPK1 1–363, 3 min, MLC-derived peptide
T5 construct: 2.5 nM DAPK1 1–363, 3 min, MLC-derived peptide (Anaspec); purchased SignalChem
Procedure: as §1, §2

[7] = target: T6, AMPK-α2β1γ1 (Homo sapiens, UniProt P54619+P54646+Q9Y478); experiment: AMPK activity assay; assay type: biochemical; conditions: 5 µM peptide; 5 nM AMPK, 10 min, SAMStide, 100 µM AMP
T6 construct: purchased SignalChem
T6 sequence (P54646 whole entry): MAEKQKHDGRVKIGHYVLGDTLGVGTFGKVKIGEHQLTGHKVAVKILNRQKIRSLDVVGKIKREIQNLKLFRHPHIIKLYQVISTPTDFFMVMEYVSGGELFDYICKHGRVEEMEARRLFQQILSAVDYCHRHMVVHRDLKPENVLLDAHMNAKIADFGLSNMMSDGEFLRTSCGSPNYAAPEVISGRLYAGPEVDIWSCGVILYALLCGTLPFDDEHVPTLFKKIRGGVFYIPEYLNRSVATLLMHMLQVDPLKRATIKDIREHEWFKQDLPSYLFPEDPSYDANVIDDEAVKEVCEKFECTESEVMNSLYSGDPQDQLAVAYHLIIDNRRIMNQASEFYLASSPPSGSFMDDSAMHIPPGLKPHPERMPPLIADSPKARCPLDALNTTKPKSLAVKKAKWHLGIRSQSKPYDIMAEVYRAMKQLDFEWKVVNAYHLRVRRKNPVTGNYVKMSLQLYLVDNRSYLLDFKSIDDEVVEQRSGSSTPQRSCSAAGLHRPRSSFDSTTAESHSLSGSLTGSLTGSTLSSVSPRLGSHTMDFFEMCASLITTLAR
T6 sequence (Q9Y478 whole entry partner): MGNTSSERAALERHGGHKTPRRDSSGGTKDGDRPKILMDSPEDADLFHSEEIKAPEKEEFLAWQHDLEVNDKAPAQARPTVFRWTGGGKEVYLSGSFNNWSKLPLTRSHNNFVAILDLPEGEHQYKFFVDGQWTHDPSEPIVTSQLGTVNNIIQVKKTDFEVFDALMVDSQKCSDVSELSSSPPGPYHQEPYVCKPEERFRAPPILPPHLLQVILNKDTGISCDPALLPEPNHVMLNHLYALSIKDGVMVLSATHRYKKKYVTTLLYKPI
T6 sequence (P54619 whole entry partner): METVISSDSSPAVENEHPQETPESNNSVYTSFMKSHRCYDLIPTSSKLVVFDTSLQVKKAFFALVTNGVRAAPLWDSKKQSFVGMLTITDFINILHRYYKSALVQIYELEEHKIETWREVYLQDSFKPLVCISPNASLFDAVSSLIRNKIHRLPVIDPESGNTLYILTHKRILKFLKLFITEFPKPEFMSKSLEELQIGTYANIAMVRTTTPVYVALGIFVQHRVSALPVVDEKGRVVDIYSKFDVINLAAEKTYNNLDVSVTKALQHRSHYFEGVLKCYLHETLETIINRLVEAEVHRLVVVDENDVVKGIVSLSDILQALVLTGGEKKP
Procedure: as §1, §2

[8] = target: T7, CaMKII (Rattus norvegicus, UniProt P11275); experiment: CaMKII activity assay, T-site binding substrate AC3; assay type: biochemical; conditions: S- and T-site binding substrate AC3, competitive inhibition (Fig. S1); read-out: IC50 for inhibition of CaMKII activity towards AC3
T7 construct: made in house; host or cells: baculovirus/Sf9 (CaMKII); bacteria (CaM)
Procedure: Standard reactions (1 min at 30°C) were started by adding CaMKIIα (2.5 nM subunits, unless stated otherwise) to a mix of 50 mM PIPES pH 7.2, 0.1% BSA, 1 µM CaM, 1 mM CaCl2, 10 mM MgCl2, 100 µM [γ-^32P]ATP (∼1 Ci/mmole), 75 µM substrate peptide (syntide 2, or as indicated), and inhibitor peptide as indicated. Reactions with 0.1 nM CaMKII were done for 10 min.
as §1
Systematic further truncation of CN21 defined the minimal inhibitory region, CN19 (Fig. 1B). […] Thus, the peptide C-terminally truncated by 2 amino acids (now termed CN19) contains the minimal inhibitory region with full inhibitory potency. Phosphorylation of syntide 2 by CaMKII was inhibited by CN21, CN20 and CN19 with an IC50 of ∼100 nM (Fig. 1C). Syntide 2 is a “regular” S-site binding CaMKII substrate, and CN peptides inhibit its phosphorylation in a non-competitive manner. We additionally tested AC3, an S- and T-site binding substrate, as this T-site binding results in competitive inhibition by CN peptides, which also bind to the T-site. […]

[9] = class estimated from syntide 2 phosphorylation at 0.3 and 0.1 µM peptide, Ala scan peptides not N-acetylated / C-amidated, read-out: IC50 [μM] (Ala scan of CN19, Fig. 2)
[10] = values compared from Figs. 1, 4 and 7, read-out: CaMKII IC50 (Fig. S5 table and legend)
[11] = in vitro [γ-32P]ATP assay, substrate syntide 2, 30°C, approximate values (Figs. 1C, 4B, 6), read-out: IC50 of inhibition of CaMKII phosphorylation of syntide 2

Substance: ARPPKLGQIGRSKRVVIED [K1A]
- IC50 [1, 9]: < 0.3 µM

Substance: Ac-KRAPKLGQIGRQKAVDIED-NH2 [CN19o]
- effect on PKA activity at 5 µM [2]: did not significantly affect
- fold increase of selectivity for CaMKII vs CaMKI compared to CN19 [3]: > 250 fold
- IC50 [3]: 38 µM
- effect on CaMKI activity at 5 µM peptide [3]: did not significantly affect
- CaMKII selectivity (Fig. S5 table) ([3]; ratio CaMKI IC50 / CaMKII IC50): > 100,000 x
- selectivity for CaMKII vs CaMKI ([3]; ratio CaMKI IC50 / CaMKII IC50): ~100,000 fold
- effect on CaMKIV activity at 5 µM [4]: did not significantly affect
- effect on PKC activity at 5 µM [5]: did not significantly affect
- CaMKII activity remaining at 5 nM peptide [1]: blocked CaMKII activity almost completely
- IC50 ([1]; CaMKII reduced to 0.1 nM, 10 min reaction, IC50 dependent on CaMKII concentration (tight binding inhibitor), read-out: IC50 for CaMKII inhibition by CN19o (Fig. 7A)): < 0.0004 µM
- effect of rational mutation in CN19a2v / CN19o on CaMKII inhibition (Fig. 6) [1]: increased potency even further
- fold greater potency of CaMKII inhibition compared to CN19 [1]: > 250 fold
- IC50 [1, 10]: 0.0004 µM
- effect on DAPK1 activity at 5 µM [6]: did not significantly affect
- effect on AMPK activity at 5 µM [7]: did not significantly affect

Substance: Ac-KRAPKLGQIGRQKAVVIED-NH2 [CN19a2v V12Q]
- effect of rational mutation in CN19a2v / CN19o on CaMKII inhibition (Fig. 6) [1]: significantly increased potency
- IC50 [1, 11]: ~0.001 µM

Substance: Ac-KRAPKLGQIGRVKAVDIED-NH2 [CN19a2v V16D]
- effect of rational mutation in CN19a2v / CN19o on CaMKII inhibition (Fig. 6) [1]: significantly increased potency
- IC50 [1, 11]: ~0.001 µM

Substance: Ac-KRAPKLGQIGRVKAVVIED-NH2 [CN19a2v]
- fold greater potency of CaMKI inhibition compared to CN19 [3]: ~2 fold
- fold increase of selectivity for CaMKII vs CaMKI compared to CN19 [3]: ~2.5 fold
- IC50 [3]: 18 µM
- effect on CaMKI activity at 5 µM peptide [3]: did not inhibit
- CaMKI activity at 20 µM peptide ([3]; 20 µM peptide, remaining activity (Fig. 5B)): ~60%
- selectivity for CaMKII vs CaMKI ([3]; ratio CaMKI IC50 / CaMKII IC50): ~900 fold
- CaMKII activity remaining at 5 nM peptide [1]: ~75%
- potency of CN19 combination mutants (Fig. 4) ([1]; 20 nM peptide, syntide 2): without loss of its potency; also recorded: significantly stronger compared to CN19a3 with additional S12V mutation (CN19a3v)
- effect of further mutation in CN19a2 on CaMKII inhibition (Figs. S3B, S4B) ([1]; compared with CN19a2): retained potency of CaMKII inhibition
- fold greater potency of CaMKII inhibition compared to CN19 [1]: ~5 fold
- IC50 [1, 10]: 0.02 µM

Substance: Ac-KRPPKLGQIGRSKRVVIED-NH2 [CN19]
- IC50 [3]: 36 µM
- effect on CaMKI activity at 5 µM peptide [3]: did not significantly inhibit
- selectivity for CaMKII vs CaMKI ([3]; ratio CaMKI IC50 / CaMKII IC50): ~360 fold
- IC50 [8]: ~1 µM
- IC50 [1, 10]: 0.1 µM

Substance: Ac-KRPPKLGQIGRSKRVVIEDD-NH2 [CN20]
- effect of CN21 truncation on CaMKII inhibition (Fig. 1B) ([1]; CaMKII 20 nM, 40 µM syntide 2): not different between each other
- IC50 [1, 11]: ~0.1 µM

Substance: Ac-KRPPKLGQIGRSKRVVIEDDR-NH2 [CN21, reference compound]
- effect on CaMKI activity at 5 µM peptide [3]: did not significantly inhibit
- IC50 [8]: ~1 µM
- IC50 [1]: ~0.1 µM

Substance: H-KRPPKLGAIGRSKRVVIED-OH [Q8A]
- IC50 [1, 9]: ~0.1 µM

Substance: H-KRPPKLGQIGRSKRVAIED-OH [V16A]
- IC50 [1, 9]: ~0.1 µM

Substance: KAPPKLGQIGRSKRVVIED [R2A]
- IC50 [1, 9]: < 0.3 µM

Substance: KRAPKLGQIGRSKRVVIED [P3A]
- IC50 [1, 9]: < 0.1 µM
- effect of individual mutation of CN19 on potency of CaMKII inhibition ([1]; syntide 2): significantly increased potency

Substance: KRPAKLGQIGRSKRVVIED [P4A]
- IC50 [1, 9]: > 0.3 µM

Substance: KRPPALGQIGRSKRVVIED [K5A]
- IC50 [1, 9]: < 0.3 µM

Substance: KRPPKAGQIGRSKRVVIED [L6A]
- IC50 [1, 9]: > 0.3 µM

Substance: KRPPKLAQIGRSKRVVIED [G7A]
- IC50 [1, 9]: < 0.3 µM

Substance: KRPPKLGQAGRSKRVVIED [I9A]
- IC50 [1, 9]: > 0.3 µM

Substance: KRPPKLGQIARSKRVVIED [G10A]
- IC50 [1, 9]: > 0.3 µM

Substance: KRPPKLGQIGASKRVVIED [R11A]
- fold reduction of potency of CaMKII inhibition compared to CN19 (Ala scan) [1]: more than 3 fold
- IC50 [1, 9]: > 0.3 µM

Substance: KRPPKLGQIGRAKRVVIED [S12A]
- fold reduction of potency of CaMKII inhibition compared to CN19 (Ala scan) [1]: more than 3 fold
- IC50 [1, 9]: > 0.3 µM

Substance: KRPPKLGQIGRSARVVIED [K13A]
- IC50 [1, 9]: < 0.1 µM
- effect of individual mutation of CN19 on potency of CaMKII inhibition ([1]; syntide 2): significantly increased potency

Substance: KRPPKLGQIGRSKAVVIED [R14A]
- IC50 [1, 9]: < 0.1 µM
- effect of individual mutation of CN19 on potency of CaMKII inhibition ([1]; syntide 2): significantly increased potency

Substance: KRPPKLGQIGRSKRAVIED [V15A]
- IC50 [1, 9]: < 0.3 µM

Substance: KRPPKLGQIGRSKRVVAED [I17A]
- IC50 [1, 9]: < 0.3 µM

Substance: KRPPKLGQIGRSKRVVIAD [E18A]
- IC50 [1, 9]: < 0.3 µM

Substance: KRPPKLGQIGRSKRVVIEA [D19A]
- IC50 [1, 9]: < 0.3 µM
